Key:
Assay type in all cases: in vivo, mice (male B6 129SF1/J)
liver metabolome = assay: Liver untargeted metabolomics in WD mice
[1] = tested on: Western diet (WD) fed mice; assay: Western diet mouse model of diet-induced fatty liver disease: serum ALT, liver TG, histology, body weight
Method: Study design. The overall objective of the study was to investigate if […] can alleviate diet induced liver steatosis and inflammation in vivo. These NAFLD features were induced in mice by feeding the animals a WD and SW for 8 weeks. The drinking water for these mice was then supplemented with low and high doses of […], while continuing the WD for another 8 weeks. The phenotypic changes were assessed by measuring body weight gain, serum ALT, hepatic inflammatory cytokines, and histopathological examination of liver tissue. To investigate potential mechanisms of action, a series of omics analyses were performed on fecal material (metagenomics and metabolomics) and liver tissue (metabolomics and proteomics). To determine cell-type specific signaling mediating […] effects in macrophages, an in vitro cell culture model was used. The histopathological scoring of liver sections was blinded; all other analyses were not blinded. Sample processing and statistical analysis were performed concurrently on treatment and control groups using identical methods. Animal experiments. Male B6 129SF1/J mice at 6 weeks of age were obtained from Jackson Laboratories (Bar Harbor, ME). Mice were acclimatized to the animal facility for one week. At the start of the experiment, mice were randomly divided into four groups (n=10 for each group). Three of the four groups were fed ad libitum a Western diet (WD) with 40% Kcal from fat and containing 0.15% cholesterol (D12079B, Research Diets) and a sugar water (SW) solution (23.1 g/L d-fructose+18.9 g/L d-glucose) as previously described (DIAMOND model (15)). After 8 weeks, the three groups of WD-fed mice were randomly selected for treatment with vehicle (WD group) or low (WD-50 group) or high dose (WD-100 group) of […]. The WD group was fed WD and drank sugar water. The WD-50 and WD-100 groups were fed WD and drank sugar water containing, respectively, 50 or 100 mg […] per kg body weight. The treatments were continued for another 8 weeks. Water bottles containing SW and […] or only SW were changed every other day. A fourth group of mice was fed a low-fat control diet (D12450B, Research Diets) and normal water for 16 weeks (CN group) (FIG. 9A). FIG. 9A presents the study design. Mice belonging to the same treatment group were housed together (5 mice/cage). Mice were maintained on 12:12-h light-dark cycles. All procedures were performed in accordance with Texas A&M University Health Sciences Center Institutional Animal Care and Use Committee guidelines under an approved animal use protocol (AUP #2017-0145). Sample collection. Fecal pellets were collected every other week prior to […] treatment, right before […] treatment, every week during […] treatment, and on the last day of the experiments (FIG. 9B). FIG. 9B presents the sampling scheme. All fecal pellets were flash frozen in liquid nitrogen after collection. Blood samples from the submandibular vein were taken right prior to […] treatment, every other week during […] treatment and on the last day of the experiments. The blood samples were centrifuged at 4,000 g for 15 min at 4° C. to obtain serum. At the end of the experiment, the mice were sacrificed by euthanasia. The liver was quickly excised and rinsed with 10× volume of ice-cold PBS. The right medium lobe of the liver was fixed in 10% neutral formalin for histological analysis. A small piece from right lateral lobe was stored in RNAlater (Sigma Aldrich, St. Louis, MO) using the manufacturer's protocol. The remaining liver tissue samples were flash frozen in liquid nitrogen, homogenized in HPLC-grade water, lyophilized to a dry powder, and stored at -80° C. until further processing. Histological analysis. Formalin fixed liver were embedded in paraffin, sectioned (5 μm) and stained with hematoxylin and eosin (H&E) through VWR histological services (Radnor, PA). Liver histology sections were evaluated by an expert pathologist at Texas A&M University who was blinded to the treatment conditions. […]

free fatty acids = assay: Quantification of free fatty acids in liver and serum of WD mice
Excerpt: Animal experiments. Male B6 129SF1/J mice at 6 weeks of age were obtained from Jackson Laboratories (Bar Harbor, ME). Mice were acclimatized to the animal facility for one week. At the start of the experiment, mice were randomly divided into four groups (n=10 for each group). Three of the four groups were fed ad libitum a Western diet (WD) with 40% Kcal from fat and containing 0.15% cholesterol (D12079B, Research Diets) and a sugar water (SW) solution (23.1 g/L d-fructose+18.9 g/L d-glucose) as previously described (DIAMOND model (15)). After 8 weeks, the three groups of WD-fed mice were randomly selected for treatment with vehicle (WD group) or low (WD-50 group) or high dose (WD-100 group) of […]. The WD group was fed WD and drank sugar water. The WD-50 and WD-100 groups were fed WD and drank sugar water containing, respectively, 50 or 100 mg […] per kg body weight. […] Quantification of free fatty acids. Serum and liver FFAs were analyzed using targeted LC-MS experiments performed on a quadrupole-time of flight instrument (TripleTOF 5600+, AB Sciex, Framingham, MA) as previously described with minor modifications (Tables 2 and 5). […] Free fatty acids (FFAs) in the liver and serum were quantified using product ion scan experiments (TripleTOF 5600+, AB Sciex, Framingham, MA). […] “Light” experiments with low collision energy were used for quantification. […]

[2] = week 16, dose-dependent, WD-50 and WD-100 vs WD

O=C([O-])Cc1c[nH]c2ccccc12.[Na+] [I3A, Indole-3-acetate sodium salt]
liver metabolome PLS-DA projection (liver metabolome; high dose (WD-100) group vs CN and WD, p<0.005 and p<0.0005): only partially overlapped with both CN and the WD group
WD-induced changes in 516 significant annotated liver metabolite features (hierarchical clustering) (liver metabolome; high dose of I3A): generally reversed these changes
liver metabolome PLS-DA projection (liver metabolome; low dose (WD-50) group vs WD, p=0.26): overlapped completely with the WD group
protection against steatosis and immune cell infiltration in livers ([1]; I3A up to 100 mg/kg body wt. in drinking water, 16 weeks WD, B6/129 mice): dose-dependently protected against these injuries
serum alanine aminotransferase (ALT) levels ([1]; high dose I3A (WD-100, 100 mg/kg in drinking water) vs WD, week 10 and beyond): significantly reduced serum ALT levels
body weight increase ([1]; normalized to week 8 body weight, I3A treated vs WD): slowed the weight increase
liver TG ([1]; week 16, WD-50 and WD-100 vs WD): reduced liver TG in a dose-dependent manner
hepatocyte ballooning (H&E histology score) [1, 2]: improved
liver steatosis (H&E histology score) [1, 2]: improved
lobular inflammation (H&E histology score) [1, 2]: improved
liver total FFA concentration, significance of I3A effect (free fatty acids; I3A treatment vs WD): no significant effect
liver total FFA concentration, reduction (free fatty acids; WD-100 group vs WD, p=0.11): 36 % reduction

— patent US20240189279A1, “IMMUNOMODULATORY COMPOSITIONS AND METHODS OF USE THEREOF” (THE TEXAS A&M UNIVERSITY SYSTEM, priority 2022, published 2024)
